Results as given in US20240417410A1, “TRICYCLIC COMPOUNDS FOR THE TREATMENT OF CANCER” (Hoffmann-La Roche Inc., priority 2023, published 2024).

Key:
[1] = system: WT NRAS-BRAF complex; experiment: WT NRAS-BRAF with CYPA interaction assay (TR-FRET); assay type: biochemical
Protocol: (§1) In this example, TR-FRET was used to measure the compound or compound-CYPA dependent disruption of the KRAS G12V-BRAF complex to assess inhibition efficacy. The IC50 ratio between WT KRAS/HRAS/NRAS and KRAS G12V mutant was calculated as selective index, which indicated tolerability and safety profile. Disruption of WT KRAS/HRAS/NRAS-BRAF complex by compounds was detected respectively. In assay buffer containing 25 mM HEPES (PH-7.4,4-(2-hydroxyethyl)-1-piperazineethanesulfonic acid, Thermo, 15630080), 0.002% Tween20, 0.1% BSA, 100 mM NaCl, 5 mM MgCl2, 10 μM GMPPNP (Guanosine 5′-[β,γ-imido]triphosphate trisodium salt hydrate, Sigma, G0635), tagless CYPA and GMPPNP loaded 6His-RAS proteins, and GST-BRAF^RBD were mixed in a well of a 384-well assay plate at final concentrations of 50 nM, 6.25 nM and 1 nM, respectively. Compound was present in plate wells as a 16-point 3-fold dilution series starting at a final concentration of 10 μM and incubated for 3 hours. A mixture of MAb Anti-6His-XL665 (Cisbio, 61HISXLB) and Mab anti-GST-TB cryptate (Cisbio, 61GSTTLB) was then added at a final concentration of 6.67 nM and 0.21 nM, respectively, and the plate was incubated for an additional 1.5 hours. TR-FRET signal was read on a PHERstar FSX microplate reader (Ex320 nm, Em 665/615 nm). Compounds that facilitate disruption of the RAS-BRAF complex were identified as those eliciting a decrease in the TR-FRET ratio relative to DMSO control wells.

[2] = system: SW620 cells (KRAS G12V); experiment: Cell viability assay (Cell Counting Kit-8, 3-day); assay type: cell-based, human; settings: Homo sapiens, SW-620; SW620, 72 hrs incubation
Summary of the method: (§2)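 72-hr compound treatment, 0.5% DMSO final; NCI-H358 seeded 5,000 cells/well, AGS and SW620 2,000 cells/well. Endpoint: CCK-8, 2-hr development, OD450 minus OD650.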

[3] = system: AGS cells (KRAS G12D); experiment: Cell viability assay (Cell Counting Kit-8, 3-day); assay type: cell-based, human; settings: Homo sapiens, 72 h, 72 hrs incubation
Summary of the method: as §2

[4] = system: NCI-H358 cells (KRAS G12C); experiment: Cell viability assay (Cell Counting Kit-8, 3-day); assay type: cell-based, human; settings: Homo sapiens, NCI-H358, 72 h, NCI-H358, 72 hrs incubation
Summary of the method: as §2

[5] = target: WT HRAS-BRAF complex (Homo sapiens (Human), UniProt P01112+P62937); experiment: WT HRAS-BRAF with CYPA interaction assay (TR-FRET); assay type: biochemical; settings: WT HRAS
Protocol: as §1

[6] = system: phosphorylation of ERK, KRAS G12D in AGS cells; experiment: pERK inhibition assay; assay type: cell-based; settings: 4 hours
Summary of the method: (§3)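 NCI-H358 (KRAS G12C), AGS (G12D) and SW620 (G12V) cells plated overnight, then treated with compound for 4 h in 0.5% DMSO. After fixing and methanol permeabilisation, phospho-ERK was detected by in-cell ELISA (HRP/TMB, OD450). IC50 from a 4-parameter sigmoidal fit.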

[7] = system: phosphorylation of ERK, KRAS G12C in NCI-H358 cells; experiment: pERK inhibition assay; assay type: cell-based; settings: Homo sapiens, NCI-H358, 4 h
Summary of the method: as §3

[8] = system: phosphorylation of ERK, KRAS G12V in SW620; experiment: pERK inhibition assay; assay type: cell-based; settings: Homo sapiens, SW-620, 4 h, SW620 cells
Summary of the method: as §3

[9] = target: WT KRAS-BRAF complex (Homo sapiens (Human), UniProt P01116+P62937); experiment: WT KRAS-BRAF with CYPA interaction assay (TR-FRET); assay type: biochemical; settings: WT KRAS
Protocol: as §1

Sequence of WT KRAS-BRAF complex (P01116-2 whole entry, looked up): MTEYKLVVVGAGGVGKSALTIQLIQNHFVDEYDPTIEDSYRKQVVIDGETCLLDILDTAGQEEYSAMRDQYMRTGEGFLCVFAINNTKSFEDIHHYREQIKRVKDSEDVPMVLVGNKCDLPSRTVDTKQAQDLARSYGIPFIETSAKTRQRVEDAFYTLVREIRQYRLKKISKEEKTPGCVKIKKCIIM
Sequence of WT KRAS-BRAF complex (P62937 whole entry, looked up): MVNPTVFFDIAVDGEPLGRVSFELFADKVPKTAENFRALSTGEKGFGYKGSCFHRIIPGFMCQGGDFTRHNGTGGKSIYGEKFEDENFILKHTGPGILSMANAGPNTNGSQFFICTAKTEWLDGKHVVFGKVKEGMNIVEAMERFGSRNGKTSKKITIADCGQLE
Sequence of WT HRAS-BRAF complex (P01112 whole entry, looked up): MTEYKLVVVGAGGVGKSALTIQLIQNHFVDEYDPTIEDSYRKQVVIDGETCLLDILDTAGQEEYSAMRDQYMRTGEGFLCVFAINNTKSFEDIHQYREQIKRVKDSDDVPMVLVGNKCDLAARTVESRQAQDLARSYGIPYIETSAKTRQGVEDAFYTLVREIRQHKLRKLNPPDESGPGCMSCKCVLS
Sequence of WT HRAS-BRAF complex (P62937 whole entry, looked up): as the sequence (P62937 whole entry, looked up) above

Compound	Selectivity Index (IC50 ratio) WT NRAS/KRAS G12V [1]	IC50 [2] [nM]	IC50 [3] [nM]	IC50 [4] [nM]	IC50 [5] [nM]	IC50 [6] [nM]	IC50 [7] [nM]	IC50 [8] [nM]	IC50 [9] [nM]
CO[C@@H](C)c1ncc(N2CCN(C)CC2)cc1-c1c2c3cc(cc4c3n1CCC4)-c1csc(n1)C[C@H](NC(=O)[C@H]1[C@H](C)[C@@H]1C)C(=O)N1CCC[C@H](N1)C(=O)OCC(C)(C)C2 (atropisomer, axis not shown; (M)) [Example 24, (1r,2R,3S)-N-[(7S,13S)-(20M)-20-[2-[(1S)-1-methoxyethyl]-5-(4-methylpiperazin-1-yl)-3-pyridyl]-17,17-dimethyl-8,14-dioxo-15-oxa-4-thia-9,21,30,31-tetrazahexacyclo[23.3.1.1^2,5.1^9,13.0^19,27.0^21,26]hentriaconta-1 (28),2,5 (31), 19,25 (29),26-hexaen-7-yl]-2,3-dimethyl-cyclopropanecarboxamide]	5.0	0.3	4.7	1.3	38	0.9	< 0.6	< 0.6	32
CCn1c(-c2cc(N3CCN(C)CC3)cnc2[C@H](C)OC)c2c3cc(ccc31)-c1csc(n1)C[C@H](NC(=O)[C@H]1C[C@@H]1C)C(=O)N1CCC[C@H](N1)C(=O)OCC(C)(C)O2 [Example A122, reference compound]	–	–	–	–	10	–	–	–	16
